Literature values in patent US20070048371A1, “Pharmaceutical formulations/composition of guanfacine suitable for single dose form administration daily” (priority 2005, published 2007).
Where a name gives a salt, the structure may show the parent alone.

Conditions: white to off-white powder; cited from earlier work

In the case of `N=C(N)NC(=O)Cc1c(Cl)cccc1Cl` [Guanfacine hydrochloride, N-amidino-2-(2,6-dichlorophenyl) acetamide hydrochloride], the solubility in acetone is listed as “slightly soluble” and the “solubility in water and alcohol” value is listed as “sparingly soluble”.
